Experiments:
Format in all cases: cell-based
[1] = system: human skin fibroblasts (hFFs); test: Reprogramming of human skin fibroblasts, AP-positive colony count
Protocol: In order to screen low-molecular-weight compounds that promote the production of reprogrammed stem cells, human fibroblasts were transduced with reprogramming viruses (Oct4, Sox2, Klf4, and c-Myc). After 5 days, the cells were seeded on Matrigel-coated plates, and then cultured in MEF-conditioned medium (CM) containing each of low-molecular-weight compounds until colonies having a morphology similar to that of human embryonic stem cells were formed. After 15 days, alkaline phosphatase (AP) activity was measured, and compounds that increased the efficiency of reprogramming compared to that of a control group were selected. […] The values shown on the graph are mean values. The data are expressed as mean±SD (n=3).
For production of iPSC, human skin fibroblasts (hFFs) and mouse embryonic fibroblasts (MEFs) were seeded on gelatin-coated 6-well plates at a concentration of 1×10^5 cells per well at one day before transfection and were transfected with virus in the presence of polybrene (8 μg/ml). At 5 days after the transfection, hFFs or MEFs were collected by trypsin treatment and seeded again on Matrigel-coated 6-well plates at a concentration of 5 to 6×10^4 cells per well in order to perform experiments in feeder-free conditions. The medium was replaced with MEF-CM medium containing 10 ng/ml of bFGF. MEF-CM was prepared as γ-irradiated MEF according to a known method (Xu C. Nat Biotechnol 19, 971-974), and […] bFGF was added to MEF-CM. The medium was replaced at 2-day intervals. At 20 days after the transfection, hESC-like colonies were collected and transferred to 12-well plates having MEFs as feeder cells, and then continuously cultured using the hESC culture method described in Example 2.
The OSKM reprogramming factor virus was produced according to the method of Example 3. In order to screen low-molecular-weight compounds that increase the efficiency of reprogramming, hFFs and mouse embryonic fibroblasts (OG2-MEF; hemizygous for the Oct4-GFP transgene) were seeded on gelatin-coated 6-well plates at a concentration of 1×10^5 cells at one day before transfection, and then transfected with virus in the presence of polybrene (8 μg/ml). At 5 days after the transfection, hFFs or MEFs were collected by trypsin treatment and seeded again on Matrigel- or gelatin-coated 12-well plates at a concentration of 3.5×10^4 cells per well in order to perform experiments under feeder-free conditions. The medium was replaced with 10 ng/ml bFGF-containing MEF-CM or mouse embryonic stem cell culture medium, and then the prepared low-molecular-weight compounds that are trans-3-indoleacrylic based compounds were added at various concentrations. The culture medium containing each of the low-molecular-weight compounds was replaced at 2-day intervals. At 15 days after the transfection, the number of either colonies showing AP activity or colonies expressing endogenous Oct4 GFP fluorescence was measured to determine the efficiency of reprogramming.
ALP staining was performed using a commercial ALP kit (Sigma) according to the manufacturer's instruction. Images of ALP-positive cells were recorded using HP Scanjet G4010. In addition, bight field images were obtained using an Olympus microscope (IX51, Olympus, Japan).
To discover low-molecular-weight compounds that involved in the reprogramming of human somatic cells, reprogramming regulators of human skin fibroblasts were investigated by analog library screening of thirty selected novel trans-3-indoleacrylic acid-based compounds. Human skin fibroblasts were transfected with OSKM reprogramming virus, and after 5 days, the cells were seeded on Matrigel-coated 12-well plates and incubated in MEF-conditioned medium (CM) containing each of the low-molecular-weight compounds until colonies having a morphology similar to that of human embryonic stem cells were formed.

human skin fibroblasts = test: SA-β-gal senescence assay during reprogramming; conditions: 10 days after induction of reprogramming, compared to untreated control (OSKM alone) (FIG. 17)
[2] = system: human skin fibroblasts (hFFs); test: Reprogramming of human skin fibroblasts, AP-positive colony count; remark: listed apart in the source
[3] = system: Mouse embryonic fibroblasts (OG2-MEF; hemizygous for the Oct4-GFP transgene); test: Reprogramming of mouse embryonic fibroblasts, Oct4-GFP colony count
Protocol: FIG. 1 is a process of screening mouse cell reprogramming factors using analog library screening of novel trans-3-indoleacrylic acid-based compounds. In order to screen low-molecular-weight compounds that promote the production of reprogrammed stem cells, mouse embryonic stem cells (OG2-MEF; hemizygous for the Oct4-GFP transgene) were transduced with reprogramming viruses (Oct4, Sox2, Klf4, and c-Myc). After 5 days, the cells were seeded on gelatin-coated plates and then cultured in mouse embryonic stem cell culture media containing each of low-molecular-weight compounds until colonies having a morphology similar to that of mouse embryonic stem cells were formed. After 15 days, the number of colonies expressing endogenous Oct4 GFP fluorescence was measured, and compounds that increased the efficiency of reprogramming compared to that of a control group were selected. […] Oct4 (O), Sox2 (S), Klf4 (K), and cMyc (M). FIG. 1B is a graph showing the increase in efficiency of reprogramming by RSC-133 and ID-558 among screened compounds. The values shown on the graph are mean values. The data are expressed as mean±SD (n=3).
The OSKM reprogramming factor virus was produced according to the method of Example 3. […] At 15 days after the transfection, the number of either colonies showing AP activity or colonies expressing endogenous Oct4 GFP fluorescence was measured to determine the efficiency of reprogramming.
To discover low-molecular-weight compounds that are involved in the reprogramming process, analog library screening of novel trans-3-indoleacrylic acid-based compounds was performed in mouse cells. Mouse embryonic fibroblasts (OG2-MEF: hemizygous for the Oct4-GFP transgene) were transfected with reprogramming viruses of Oct4, Sox2, Klf4 and c-Myc (OSKM), and after 5 days, the cells were seeded on gelatin-coated 12-well plates and incubated with mouse embryonic stem cell culture medium containing each of low-molecular-weight compounds until colonies having a morphology similar to that mouse stem cells were formed so that endogenous Oct4 GFP fluorescence was expressed (FIG. 1A). […]

SMILES: NC(=O)c1cccc(NC(=O)/C=C/c2c[nH]c3ccccc23)c1 [RSC-133, 3-[3-(1H-indol-3-yl)-acrylamido]-benzamide]
- concentration that increases the efficiency of reprogramming to the highest level ([1]; 0, 0.1, 1, 5, 10 and 20 μM tested): 10 µM
- efficiency of reprogramming at 20 μM versus 10 μM ([1]; 20 μM (FIG. 8)): did not increase
- efficiency of reprogramming, hypoxic conditions ([1]; 5% O2, compared to control group (FIG. 4)): showed the effect of increasing the efficiency of reprogramming of human skin fibroblasts
- efficiency of reprogramming, normal conditions ([1]; 21% O2, compared to control group (FIG. 4)): showed the effect of increasing the efficiency of reprogramming of human skin fibroblasts
- efficiency of reprogramming (alkaline phosphatase activity) ([1]; OSKM, MEF-CM, after 15 days, compared to control group (FIG. 3)): increased the efficiency of reprogramming of human skin fibroblasts
- effect on the promotion of reprogramming of human cells relative to AZA, VPA, TSA and SB431542 ([1]; RSC 133 10 μM, AP-positive colonies, OSKM (FIG. 2b)): 1.5-3.3 times
- concentration dependence of the increase in efficiency of reprogramming ([1]; treatment concentration of up to 10 μM, AP-positive colonies (FIG. 8)): concentration-dependent manner
- efficiency of reprogramming, continuous treatment ([1]; treatment throughout the reprogramming process (condition 1 in FIG. 10)): increased to the highest level
- decrease of the ratio of SA-β-gal-positive cells (human skin fibroblasts): 37.23%
- substitution for reprogramming factor c-Myc, compound alone ([2]; RSC-133 alone, AP-positive colonies (FIG. 5)): did not show the substituting effect
- substitution for reprogramming factor c-Myc, in combination with sodium butyrate ([2]; RSC-133 in combination with sodium butyrate (NaB), compared to control group (FIG. 5)): substituted for c-Myc factor to increase the efficiency of reprogramming
- efficiency of reprogramming, treatment in the initial stage ([2]; initial stage (including 5 days after viral infection), compared to other periods of equal length (FIG. 10)): significantly increased
- efficiency of reprogramming (number of colonies expressing endogenous Oct4 GFP fluorescence) ([3]; OG2-MEF transfected with OSKM, after 15 days, compared to control group): showed the effect of increasing the efficiency of reprogramming
- efficiency of reprogramming compared to reported compounds ([3]; vs 5-Azacytidine, BIX-01294, VPA or increased MOI of OSKM virus (FIG. 2a)): greatly increased the efficiency of reprogramming

Reference: patent publication US9587225B2, “Low-molecular-compound for improving production, maintenance and proliferation of pluripotent stem cells, composition comprising the same, and culture method” (KOREA RESEARCH INSTITUTE OF BIOSCIENCE AND BIOTECHNOLOGY, priority 2012, dated 2017)
